This note sets out measurements from patent US8217071B2, “Use of inhibitors of the degradation of p27, in particular Argyrin and derivatives thereof, for the treatment of proliferative diseases” (Helmholtz Zentrum für Infektionsforschung GmbH, priority 2007, dated 2012).

Assay [1] has as its system HCT116 colon carcinoma xenotransplant tumours. As to the kind of experiment: HCT116 xenotransplant tumours in nu/nu mice. It counts as in vivo, mouse. The conditions noted are these: HCT116 derived tumor-xenografts. As for the experimental part:
(§1) Treatment with Argyrin A or bortezomib was started when these tumours reached a volume of 200 mm3. […] (n=8 Argyrin A, n=8 Bortezomib, n=6 PBS/EtOH) b) The pictures show the macroscopic appearance of a xenotransplant tumour after 10 days of treatment with Argyrin A. Note the large necrotic centre of the explanted tumour. c) After a single injection of Argyrin A (0.15 mg/kg bodyweight) or bortezomib (1.0 mg/kg bodyweight) tumours were explanted at the indicated time points and blood vessels in the tumour tissue were co-stained for CD31 and p27. […] Note the swelling of the endothelial cell (“E”) and the occlusion of the lumen (“L”) by erythrocytes after 90 minutes of Argyrin A treatment. The arrow marks the detachment of endothelial cells after 48 h of Argyrin A treatment. […] Tube length (f) and blood vessel like […] structures were determined using photographs of HUVEC cultures. The micrographs show representative examples of HUVEC cultures under the indicated conditions.
1×10^7 SW480 cells or HCT116 cells (in 100 microliters DMEM medium and 100 microliters matrigel) were s.c. injected into the flanks of NMRI nu/nu mice. Tumours grew for approx. 18 days until they reached appropriate size (200 mm3). Tumour size was measured with a digital calliper and calculated with the help of the following formula: (Length×width2)*π/6. […]

Assay [2] deals with mouse embryonic fibroblasts from p27^kip1 wildtype mice. As to the kind of experiment: Apoptosis (sub-G1 fraction) by flow cytometry in p27 wildtype MEF. It counts as cell-based. The conditions noted are these: for apoptosis in p27 wildtype MEF: sub G1 fraction. The source says:
Next the inventors tested whether the stabilization of p27 was indeed required for the apoptosis inducing function of Argyrin A or was merely a consequence of proteasome inhibition. For this the inventors treated immortalized mouse embryonic fibroblasts from p27^kip1 wildtype or knockout mice with Argyrin A or the proteasome inhibitor bortezomib and assayed cell cycle distribution and apoptosis by flow cytometry. […] These differences in sensitivity in response to Argyrin A treatment were not due to differences in the accumulation of other proteasomal substrates in p27 wildtype and knockout cells as p53 and p21 levels increased in both cell lines in response to Argyrin A (FIG. 6B). To extend this observation to human cancer cells the inventors reduced the levels of p27^kip1 in HeLa cells using p27^kip1 specific siRNA.
The results shown are the average numbers for six independent experiments. b+d) Wildtype (b) and p27 knockout (d) MEF were treated with Argyrin A or transfected with siRNAs specific for the β1, β2 or β5 subunit of the proteasome for 24 hours. The graphs show the remaining catalytic activity of the different proteasome subunits after Argyrin A or siRNA treatment compared to an untreated control (n=3). The western blots show the expression of the β1, β2 or β5 subunit of the proteasome in proliferating cells and after treatment with siRNAs for a representative experiment. c+e) Flow cytometric measurements of the number of apoptotic cells (sub-G1 fraction) after Argyrin A or siRNA treatment in wildtype (c) or p27 knockout (E) MEF. f) HeLa cells were treated with Argyrin A or siRNA against p27 or Argyrin A and siRNA against p27 for either 24 or 48 hours.
MTT assays were done as previously described (Sasse, F. et al. Argyrins, immunosuppressive cyclic peptides from myxobacteria. I. Production, isolation, physico-chemical and biological properties. J Antibiot (Tokyo) 55, 543-51 (2002)). TUNEL staining of tissue sections was performed on 10 micrometer sections which were deparafinised and treated as recommended by the manufacturer. (In Situ Cell Death Detection Kit, Fluorescein; ROCHE, Cat #11 684 795 910). Flow cytometric analysis of cultured cells was done using a Becton Dickinson fluorescence cytometer as previously described (Malek, N. P. et al. A mouse knock-in model exposes sequential proteolytic pathways that regulate p27^Kip1 in G1 and S phase. Nature 413, 323-7 (2001)). Analysis of the distribution of cells in the cell cycle and the sub-G1 fraction was done using Cell Quest software. A histone-associated-DNA-fragments ELISA was used to determine the number of apoptotic cells according to manufacturers instructions (Roche #11 774425001).

The subject of assay [3] is p27^kip1-GFP fusion protein in HeLa cells. As to the kind of experiment: High throughput screen for p27 stabilizing substances. It counts as cell-based, human. Conditions: 70 nM. The source says:
To identify substances which lead to an increase in the expression levels of p27^kip1 the inventors generated a cell based high throughput assay system (see materials and methods for details). […] As shown by flow cytometry, Argyrin A exerted two different cellular phenotypes at ranges of IC50. […] The apoptosis inducing activity of Argyrin A was confirmed by measuring DNA fragmentation using a histone fragmentation ELISA (FIG. 5B).
A cellular high throughput screen for p27 stabilizing compounds was established by stably introducing a DNA plasmid (EGFP-N1, Clontech) which allows the expression of p27^kip1-GFP fusion protein in HeLa cells. p27-GFP expressing cells were selected with neomycin and several independent clones were subcultured. HeLa p27-GFP cells were seeded in 384 well plates (Corning) and incubated with a set of highly diverse natural products (part of the Helmholtz Center for Infection Research myxobacterial metabolite collection) at a concentration of 70 nM. GFP emission was determined by fluorometric measurements using a Victor 1420 multilabel counter (Perkin Elmer) at 3 h, 24 h, 48 h and 60 h after the start of treatment. The proteasome inhibitor MG132 was used as a positive control.

The subject of assay [4] is HUVEC. Nature of the assay: In vitro capillary-like tube structure formation on matrigel. It counts as cell-based, human.
From the text: The inventors then asked whether Argyrin A was also able to prevent the formation of capillary like tube structures formed by HUVEC on matrigel, an assay frequently used to test the ability of a compound to interfere with neovascularization. […] The addition of Argyrin A led to a 40% reduction in tube formation in this assay. Importantly transfection of siRNA against p27 protected endothelial cells against the inhibitory activity of Argyrin A. The effects exerted by Bortezomib in this assay were smaller and not rescued by loss of p27. In addition to tube length the inventors also quantitated the number of blood vessel like structures formed by HUVECS after treatment with Argyrin A or bortezomib (FIG. 4F).
as §1
Primary microvascular endothelial cells (HMVEC) were isolated from human foreskin. The cells were kept at 37° C. and 10% CO2 in EGM-2 MV from Cambrex which includes the basal medium (EBM-2), FBS, hydrocortisone, hFGF-B, VEGF, R3-IGF, ascorbic acid, hEGF, gentamicin and amphotericin. The effect of argyrin A or bortezomib on in vitro angiogenesis was determined by matrigel capillary-like tube structure formation assay. To examine the effect of the different compounds on in vitro angiogenesis, HMVECs were seeded in 96-well culture plates precoated with Matrigel (BD Biosciences, #354248) and exposed to argyrin A or bortezomib. Enclosed networks of tube structures from three randomly chosen fields were scored under the microscope (Leica, Cambridge, United Kingdom). Pictures were taken with an Axio Vision 3.1 Zeiss camera and scored by determining tube length and the formation of closed vessel like structures.

[5] abbreviates: Argyrin A 1 μM, bortezomib 10 nM.

Numbered stars: 1 amine (or outer) side, 2 acyl side, 3 side chain; on linkers, the order of the positions; unused ones are H or OH. Square brackets hold non-standard residues; d marks the D form. Peptide text beside a SMILES is read from it. dAla(ψthiazole) = C[C@@H](N[*:1])c1nc(C(=O)[*:2])cs1; Trp(4-OMe) = COc1cccc2[nH]cc(C[C@H](N)C(=O)O)c12; Dha = C=C(N)C(=O)O; Sar = CNCC(=O)O

For the compound `C=C1NC(=O)[C@@H](C)NC(=O)CNC(=O)[C@H](Cc2c[nH]c3cccc(OC)c23)NC(=O)[C@H](Cc2c[nH]c3ccccc23)NC(=O)c2csc(n2)[C@@H](C)NC(=O)CN(C)C1=O` [Argyrin A] (cyclo(W[Trp(4-OMe)]G[dA][Dha][Sar][dAla(ψthiazole)])), the tumour volume entry in assay [1] is listed as “significant reduction”. For the same compound, the “apoptosis, share of all cells, wildtype fibroblasts” value in assay [2] (after 24 hours) came out at 38%. In assay [2], the “apoptosis in p27 wildtype MEF” value is on record as “induced apoptosis”. The “increase in fluorescence (p27-GFP)” value in assay [3] was “strongest increase in fluorescence”. Further, in assay [4] (setting [5]), the “number of blood vessel like structures” value is “significant reduction”. For the same compound, in assay [4] (VEGF stimulation, Argyrin A 1 μM), the “reduction in tube formation (relative length of capillary tubes)” value is listed as 40%.

With `CC(C)C[C@H](NC(=O)[C@H](Cc1ccccc1)NC(=O)c1cnccn1)B(O)O` [bortezomib, reference compound], the results for the “apoptosis in p27 wildtype MEF” value in assay [2] and in assay [2] (listed as Bortezomib) were “massive apoptosis” and “induced apoptosis”, respectively. Further, the “number of blood vessel like structures” value in assay [4] (setting [5]) is listed as “significant reduction”. Further, the “effect on tube formation compared with Argyrin A” value in assay [4] (bortezomib 10 nM) was “smaller”.
